Measurements from patent US10265337B2, “Use of A3 adenosine receptor agonist in osteoarthritis treatment” (CAN-FITE BIOPHARMA LTD., priority 2005, dated 2019).

Tests used:
[1] = tested on: mono-idoacetate (MIA) experimental osteoarthritis (OA); experiment: MIA experimental osteoarthritis model, roentgenographic examination of knees; assay type: in vivo, rat; conditions: MIA rats; CF101 100 μg/kg PO twice daily; FIGS. 3A-3D
Procedure: (§1) In the following study the effect of IB-MECA (herein, at times, CF101) on the development of experimental osteoarthritis (OA) was determined. In this study the mono-idoacetate (MIA) experimental model was utilized. The MIA is a rat experimental model that rapidly reproduces the clinical and pathological characteristic of OA. […] Infra-articular injection of MIA induces chondrocyte death in the articular cartilage of rodent. Specifically, male Wistar rats (˜200 gr) (Harlan laboratories) were anesthetized with Isoflurane and the right leg was flexed at a 90° angle of the knee. The MIA was dissolved in physiological saline and 2 mg, at a volume of 50 μL were injected intra-articular of the right foot of each animal, using a 27-gauge, 0.5-inch needle. Treatment with CF101, 100 μg/kg, Per Oz (PO), twice daily was initiated at day 7 post-injection.

IKK = experiment: Western blot of knee joint protein extracts, IKK; assay type: in vivo, rat; conditions: OA rats, CF101 treated vs control, FIG. 4C
Text: (§2) To explore the fate of the A3AR and downstream key signaling proteins participating in the NF-kB and Wnt signaling pathways, knee joints protein extracts from control and CF101 treated animal were subjected to Western blot analysis.

GSK-3β = experiment: Western blot of knee joint protein extracts, GSK-3β; assay type: in vivo, rat; conditions: OA rats, CF101 treated vs control, FIG. 4E
Text: as §2

rat FLS = experiment: MTT proliferation assay, rat fibroblast like synoviocytes; assay type: cell-based; conditions: CF101 10 nM added for the last 24 hours of 72 hours, FLS from adjuvant induced arthritis rats, FIG. 1B
Procedure: The effect of IB-MECA (herein at times CF101) alone or in combination with MTX, on the proliferation of the human or rat fibroblast like synoviocytes (FLS) was tested. […] Synovia tissue from adjuvant induced arthritis rats was collected. The tissue was minced and subjected for digestion in 4 mg/ml type I collagenase and 0.25 w/v trypsin in DMEM. The mixture was shacked vigorously for 4 hours at 37°. The released cells were separated from the supernatant by centrifugation and cultured in DMEM containing 15% FCS, 2 mM glutamine, 100 U/ml penicillin, 100 μg/ml streptomycin in a 37° C., 5% CO2 incubator. After overnight incubation the nonadherent cells were removed. The adherent cells (FLS) were sub-cultured at a 1:2 ratio, and the cells from passages 4 through 10 were used in the experiments. The effect of CF101 alone or in combination with MTX, on the proliferation of the FLS was tested utilizing an MTT assay. The cells (5×10^4/ml cells) were incubated in 96-well microtiter plates for 72 hours in the growth medium. At the last 24 hours CF101 (10 nM) were added to the cultures.

[2] = oral, healthy young men; cited from earlier work
A3AR = target: T1, A3AR (Rattus norvegicus, UniProt P28647); experiment: Western blot of knee joint protein extracts, A3AR; assay type: in vivo; conditions: OA rats, CF101 treated vs control, FIG. 4A
T1 construct: knee joints protein extracts from control and CF101 treated animal were subjected to Western blot analysis; from tissue; host or cells: rat knee joint (OA rats)
T1 sequence (P28647 1-320): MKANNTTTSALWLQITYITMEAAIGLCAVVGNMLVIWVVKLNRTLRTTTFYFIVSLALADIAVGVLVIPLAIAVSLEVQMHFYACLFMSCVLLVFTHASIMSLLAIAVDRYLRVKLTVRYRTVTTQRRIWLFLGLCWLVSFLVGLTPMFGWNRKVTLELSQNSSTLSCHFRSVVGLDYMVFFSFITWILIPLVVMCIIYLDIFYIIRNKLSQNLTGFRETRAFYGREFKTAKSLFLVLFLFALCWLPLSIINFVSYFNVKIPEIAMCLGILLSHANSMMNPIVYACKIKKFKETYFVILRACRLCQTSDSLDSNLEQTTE
Text: as §2

[3] = tested on: human fibroblast like synoviocytes (FLS); experiment: MTT proliferation assay, human fibroblast like synoviocytes; assay type: cell-based; conditions: CF101 10 nM added for the last 24 hours of 72 hours, FLS from OA patients, FIG. 1A
Procedure: The effect of IB-MECA (herein at times CF101) alone or in combination with MTX, on the proliferation of the human or rat fibroblast like synoviocytes (FLS) was tested. […] Human synovial fluid samples were collected from osteoarthritis (OA) patients undergoing paracenthesis. The fluid was centrifuged and the supernatant removed. The cells were resuspended in DMEM containing type I collagenase (4 mg/ml), for 2 hours, and shacked vigorously at 37°. The released cells in the supernatant were harvested by centrifugation and were cultured in DMEM containing 10% FBS, 2 mM glutamine, 100 U/ml penicillin, 100 μg/ml streptomycin, 1% non essential amino acids, 1% sodium pyruvate and […] HEPES buffer in a 37° C., 5% CO2 incubator. After overnight culture, non-adherent cells were removed. The adherent cells (FLS) were subcultured at a 1:2 ratio, and the cells from passages 4 through 10 were used in the experiments. The effect of CF101 alone or in combination with MTX, on the proliferation of the FLS was tested utilizing an MTT assay. The cells (5×10^4/ml cells) were incubated in 96-well microtiter plates for 72 hours in the growth medium. At the last 24 hours CF101 (10 nM) were added to the cultures.

PI3K = experiment: Western blot of knee joint protein extracts, PI3K; assay type: in vivo, rat; conditions: OA rats, CF101 treated vs control, FIG. 4B
Text: as §2

[4] = tested on: mono-idoacetate (MIA) experimental osteoarthritis (OA); experiment: MIA experimental osteoarthritis model, knee diameter; assay type: in vivo, rat; conditions: male Wistar rats; CF101 100 μg/kg PO twice daily from day 7 post-injection; vs control group, P=9.48317E-06; FIG. 2
Procedure: as §1, with “post-injection. Knee diameter was measured using calibrated digital caliper adapted by reinforcing the tips for knee diameter measure. The results presented in FIG. 2 show the delta between the diameter of the MIA injected knee (Right knee) and the diameter of the MIA un-injected knee (Left knee) within the same animal. The group of the control is compared to the CF101 treated group (5 animals in each group).” for “post-injection.”

CNC(=O)[C@H]1O[C@@H](n2cnc3c(NCc4cccc(I)c4)ncnc32)[C@H](O)[C@@H]1O [CF101, 1-deoxy-1-{6-[({3-iodophenyl}methyl)amino]-9H-purine-9-yl}-N-methyl-β-D-ribofuranuronamide]
roentgenographic examination of knees [1]: normal tibial epiphysial line without sclerosis | IKK expression level in knee joints (IKK): down-regulation | GSK-3β expression level in knee joints (GSK-3β): up-regulated | effect on the proliferation of rat FLS (rat FLS): marked inhibitory effect | half life in human plasma [2]: 8 to 10 h | A3AR expression level in knee joints (A3AR): down-regulated | effect on the proliferation of human FLS [3]: marked inhibitory effect | PI3K expression level in knee joints (PI3K): down-regulation | development of tissue swelling (delta between diameter of MIA injected and un-injected knee) [4]: significantly inhibited
